In general, Ki refers to a dissociation constant, usually derived from enzyme kinetics or from competition with a known ligand.

Results on two compounds are retold here after ChEMBL document CHEMBL1152426, “Synthetic strategies toward carbocyclic purine-pyrimidine hybrid nucleosides” (Bioorg Med Chem, 2009).

Activity calls are given as the source filed them. The rule behind the calls is not given here.

A short description of assay [1]: Inhibition of S-adenosylhomocystein hydrolase.
Assay [2] can be described thus: Inhibition of DNA methyltransferase.
The nature of assay [3]: Inhibition of S-adenosylhomocystein hydrolase in presence of 10 uM of S-adenosylhomocystein.
Assay [4] in a line: Inhibition of S-adenosylhomocystein hydrolase at 45 uM in presence of S-adenosylhomocystein.

In turn, `O=c1[nH]c(=O)n([C@@H]2CC[C@@H](O)[C@H]2O)c2nc[nH]c12` gave a Ki in assay [1] of 5 µM. The result in assay [2] was inactive. Moreover, the outcome in assay [3] and in assay [4] was Active.

`O=c1[nH]c(=O)n([C@@H]2CC[C@@H](O)[C@H]2O)c2ncsc12`: the outcome in assay [1] and in assay [2] was inactive.
